Article PMC9750858, “Rapid biosensor development using plant hormone receptors as reprogrammable scaffolds” (Nature Biotechnology, 2022)
Where “and” joins values, the source holds several entries; their conditions need not be identical. Equal entries are not always repeated.

Key:
[1] = biological target: T1, PYR1^WIN (Arabidopsis thaliana, UniProt O49686, A160I/D26G/E4G/F159A/K59Q/Y23H); test: Yeast transcriptional activation circuit Z4-PYR1/VP64-ΔN-HAB1, GFP reporter, PYR1^WIN; conditions: for whole-cell GFP fluorescence (Fig. 3b source data): 12 h, replicates
[2] = biological target: T2, PYR1^WIN / ΔN-HAB1 (Arabidopsis thaliana, UniProt O49686, A160I/D26G/E4G/F159A/K59Q/Y23H); test: Ligand/receptor-mediated PP2C (ΔN-HAB1 phosphatase) inhibition, fluorogenic substrate, PYR1^WIN; assay type: biochemical
T2 construct: 6xHis (N); made in house; host or cells: E. coli BL21 (DE3) pLysS
T2 sequence (O49686 with tags, fused parts or gaps E4G/Y23H/D26G/K59Q/F159A/A160I): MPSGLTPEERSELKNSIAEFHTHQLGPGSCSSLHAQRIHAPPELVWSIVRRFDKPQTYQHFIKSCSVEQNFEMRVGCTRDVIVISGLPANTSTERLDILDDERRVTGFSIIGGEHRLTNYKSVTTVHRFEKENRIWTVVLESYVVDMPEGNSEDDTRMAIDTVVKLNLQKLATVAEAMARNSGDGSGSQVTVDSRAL
Description: Coding sequences of the cannabinoid sensors were cloned into the protein expression vector pET28a to encode 6×His-tag-receptor fusions. Constructs were sequenced and transformed into the BL21 (DE3) pLysS E. coli strain for heterologous expression with IPTG (1 mM), followed by purification, using affinity chromatography, as previously reported. In vitro validation of evolved sensors was performed by using recombinant sensors and ΔN-HAB1 (HAB1 Δ1–178, ref. [36]) proteins, as previously described. […] Cannabinoid concentration curves ranged from 4 to 10,000 nM, and median inhibitory concentrations for PP2C inhibition were obtained via fluorescent measurement in the presence of 1 mM 4-methylumbelliferyl phosphate.

[3] = test system: PYR1-derived cannabinoid receptors (PYR1 mutants) binding HAB1
[4] = biological target: T3, PYR1^WIN-M (Arabidopsis thaliana, UniProt O49686, A160I/D26G/E4G/F159A/H60P/K59Q/N90S/Y23H); test: ELISA-like plate assay, immobilized PYR1^WIN-M, biotinylated ΔN-HAB1^T+; assay type: binding; conditions: for ELISA signal generation, receptor cross-reactivity (source data): replicates, 212
T3 construct: made in house
T3 sequence (O49686 with tags, fused parts or gaps E4G/Y23H/D26G/K59Q/H60P/N90S/F159A/A160I): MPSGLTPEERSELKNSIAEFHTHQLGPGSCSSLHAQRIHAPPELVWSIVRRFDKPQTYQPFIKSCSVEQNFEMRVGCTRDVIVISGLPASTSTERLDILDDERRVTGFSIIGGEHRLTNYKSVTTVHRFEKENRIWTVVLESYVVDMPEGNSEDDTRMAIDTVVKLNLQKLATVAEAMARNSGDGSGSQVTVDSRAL

[5] = biological target: T1, PYR1^WIN; test: Split NanoLuc luciferase complementation in yeast, NLuc^N-PYR1^WIN/NLuc^C-ΔN-HAB1; assay type: cell-based; parameters: >PYR1-WIN; expressed in transfected cells; host or cells: Saccharomyces cerevisiae; conditions: for LUM, split luciferase luminescence (Fig. 3c source data): replicates

T1 sequence (Q9CAJ0 179-511, one chain of several): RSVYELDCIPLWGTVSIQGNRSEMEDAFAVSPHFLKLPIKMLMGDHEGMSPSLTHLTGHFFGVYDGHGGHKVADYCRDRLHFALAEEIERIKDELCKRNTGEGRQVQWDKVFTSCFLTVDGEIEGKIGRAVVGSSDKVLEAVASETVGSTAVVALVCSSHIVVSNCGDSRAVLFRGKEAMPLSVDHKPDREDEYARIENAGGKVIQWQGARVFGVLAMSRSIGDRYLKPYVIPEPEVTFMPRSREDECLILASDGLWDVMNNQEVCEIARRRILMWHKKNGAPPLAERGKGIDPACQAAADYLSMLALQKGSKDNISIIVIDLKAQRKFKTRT

Cc1c(C(=O)c2cccc3ccccc23)c2cccc3c2n1C(CN1CCOCC1)CO3 (single isomer, unassigned; (+)) [WIN, (+)-WIN 55,212-2]
EC50 [1]: 28 nM | whole-cell GFP fluorescence (Fig. 3b source data) ([1]; [Ligand] 0.0001 uM): 1.509 and 1.618 and 1.562 | whole-cell GFP fluorescence (Fig. 3b source data) ([1]; [Ligand] 0.001 uM): 1.581 and 1.833 and 1.779 | whole-cell GFP fluorescence (Fig. 3b source data) ([1]; [Ligand] 0.01 uM): 2.798 and 2.733 and 2.756 | whole-cell GFP fluorescence (Fig. 3b source data) ([1]; [Ligand] 0.1 uM): 4.085 and 3.967 and 4.046 | whole-cell GFP fluorescence (Fig. 3b source data) ([1]; [Ligand] 0.5 uM): 4.169 and 4.494 and 4.506 | whole-cell GFP fluorescence (Fig. 3b source data) ([1]; [Ligand] 1 uM): 4.972 and 4.595 and 4.6223 | whole-cell GFP fluorescence (Fig. 3b source data) ([1]; [Ligand] 5 uM): 4.959 and 4.89 and 5.277 | whole-cell GFP fluorescence (Fig. 3b source data) ([1]; [Ligand] 10 uM): 5.105 and 5.0049 and 4.874 | whole-cell GFP fluorescence (Fig. 3b source data) ([1]; [Ligand] 100 uM): 4.986 and 5.066 and 4.884 | EC50 [2]: 72 nM | inhibition of ΔN-HAB1 phosphatase activity relative to mock (Fig. 3a source data) ([2]; [Ligand] 0.004115 uM, replicates, 0.004115 µM): -0.3447 and 3.327 and 8.558 | inhibition of ΔN-HAB1 phosphatase activity relative to mock (Fig. 3a source data) ([2]; [Ligand] 0.012346 uM, replicates, 0.012346 µM): 13.6846 and 17.5801 | inhibition at 0.012346 µM ([2]; [Ligand] 0.012346 uM, replicates, read-out: inhibition of ΔN-HAB1 phosphatase activity relative to mock (Fig. 3a source data)): 13.7% | inhibition of ΔN-HAB1 phosphatase activity relative to mock (Fig. 3a source data) ([2]; [Ligand] 0.037037 uM, replicates, 0.037037 µM): 27.3559 and 29.1117 | inhibition at 0.037037 µM ([2]; [Ligand] 0.037037 uM, replicates, read-out: inhibition of ΔN-HAB1 phosphatase activity relative to mock (Fig. 3a source data)): 28.7% | inhibition of ΔN-HAB1 phosphatase activity relative to mock (Fig. 3a source data) ([2]; [Ligand] 0.111111 uM, replicates, 0.111111 µM): 63.5233 and 58.9433 | inhibition at 0.111111 µM ([2]; [Ligand] 0.111111 uM, replicates, read-out: inhibition of ΔN-HAB1 phosphatase activity relative to mock (Fig. 3a source data)): 61.1% | inhibition of ΔN-HAB1 phosphatase activity relative to mock (Fig. 3a source data) ([2]; [Ligand] 0.333333 uM, replicates, 0.333333 µM): 83.1534 and 83.7629 | inhibition at 0.333333 µM ([2]; [Ligand] 0.333333 uM, replicates, read-out: inhibition of ΔN-HAB1 phosphatase activity relative to mock (Fig. 3a source data)): 84.4% | inhibition of ΔN-HAB1 phosphatase activity relative to mock (Fig. 3a source data) ([2]; [Ligand] 1 uM, replicates, 1 µM): 93.2666 and 92.7582 | inhibition at 1 µM ([2]; [Ligand] 1 uM, replicates, read-out: inhibition of ΔN-HAB1 phosphatase activity relative to mock (Fig. 3a source data)): 93.4% | inhibition of ΔN-HAB1 phosphatase activity relative to mock (Fig. 3a source data) ([2]; [Ligand] 10 uM, replicates, 10 µM): 93.1102 and 92.715 | inhibition at 10 µM ([2]; [Ligand] 10 uM, replicates, read-out: inhibition of ΔN-HAB1 phosphatase activity relative to mock (Fig. 3a source data)): 97.6% | cannabinoid concentration to which CB-S1 library clones respond (as low as) ([3]; clones from shuffled library CB-S1): 50 nM | stereoisomer recognized by the evolved WIN receptor ([3]; selections conducted using a racemate): recognizes the biologically active (+)-WIN 55,212-2 stereoisomer | ELISA signal generation, receptor cross-reactivity (source data) ([4]; cannabinoid at 2 nM): 1.487 and 1.277 and 1.151 | ELISA signal generation, receptor cross-reactivity (source data) ([4]; cannabinoid at 2 μM): 3.378 and 3.384 and 3.484 | ELISA absorbance signal (source data) ([4]; saline, ligand 1e-6 uM): 0.133 and 0.126 and 0.127 | ELISA absorbance signal (source data) ([4]; saline, ligand 1e-5 uM): 0.152 and 0.136 and 0.148 | ELISA absorbance signal (source data) ([4]; saline, ligand 0.0001 uM): 0.162 and 0.157 and 0.179 | ELISA absorbance signal (source data) ([4]; saline, ligand 0.001 uM): 0.26 and 0.252 and 0.274 | ELISA absorbance signal (source data) ([4]; saline, ligand 0.01 uM): 0.302 and 0.321 and 0.336 | ELISA absorbance signal (source data) ([4]; saline, ligand 0.1 uM): 0.327 and 0.325 | ELISA absorbance signal (source data) ([4]; saline, ligand 1 uM): 0.315 and 0.35 and 0.349 | ELISA absorbance signal (source data) ([4]; saline, ligand 10 uM): 0.341 and 0.349 and 0.35 | ELISA absorbance signal (source data) ([4]; saliva, ligand 1e-6 uM): 0.097 and 0.09 and 0.095 | ELISA absorbance signal (source data) ([4]; saliva, ligand 1e-5 uM): 0.096 and 0.098 | ELISA absorbance signal (source data) ([4]; saliva, ligand 0.0001 uM): 0.124 and 0.126 and 0.123 | ELISA absorbance signal (source data) ([4]; saliva, ligand 0.001 uM): 0.239 and 0.257 and 0.242 | ELISA absorbance signal (source data) ([4]; saliva, ligand 0.01 uM): 0.374 and 0.38 and 0.358 | ELISA absorbance signal (source data) ([4]; saliva, ligand 0.1 uM): 0.397 and 0.408 and 0.382 | ELISA absorbance signal (source data) ([4]; saliva, ligand 1 uM): 0.436 and 0.42 and 0.431 | ELISA absorbance signal (source data) ([4]; serum, ligand 1e-6 uM): 0.103 and 0.1 and 0.092 | ELISA absorbance signal (source data) ([4]; serum, ligand 1e-5 uM): 0.098 and 0.102 | ELISA absorbance signal (source data) ([4]; serum, ligand 0.0001 uM): 0.108 and 0.106 and 0.1 | ELISA absorbance signal (source data) ([4]; serum, ligand 0.001 uM): 0.141 and 0.195 and 0.127 | ELISA absorbance signal (source data) ([4]; serum, ligand 0.01 uM): 0.239 and 0.24 | ELISA absorbance signal (source data) ([4]; serum, ligand 0.1 uM): 0.319 and 0.268 and 0.325 | ELISA absorbance signal (source data) ([4]; serum, ligand 1 uM): 0.312 and 0.316 and 0.329 | ELISA absorbance signal (source data) ([4]; urine, ligand 1e-6 uM): 0.141 and 0.142 and 0.134 | ELISA absorbance signal (source data) ([4]; urine, ligand 1e-5 uM): 0.148 and 0.138 | ELISA absorbance signal (source data) ([4]; urine, ligand 0.0001 uM): 0.162 and 0.161 and 0.149 | ELISA absorbance signal (source data) ([4]; urine, ligand 0.001 uM): 0.248 and 0.231 and 0.225 | ELISA absorbance signal (source data) ([4]; urine, ligand 0.01 uM): 0.338 and 0.33 and 0.313 | ELISA absorbance signal (source data) ([4]; urine, ligand 0.1 uM): 0.356 and 0.348 and 0.341 | ELISA absorbance signal (source data) ([4]; urine, ligand 1 uM): 0.387 and 0.372 and 0.376 | EC50 [5]: 56 nM | LUM, split luciferase luminescence (Fig. 3c source data) ([5]; [Ligand] 0.0001 uM): 4.094 and 3.848 and 3.642 | LUM, split luciferase luminescence (Fig. 3c source data) ([5]; [Ligand] 0.001 uM): 4.593 and 4.28 and 4.174 | LUM, split luciferase luminescence (Fig. 3c source data) ([5]; [Ligand] 0.01 uM): 5.448 and 5.829 and 5.793 | LUM, split luciferase luminescence (Fig. 3c source data) ([5]; [Ligand] 0.1 uM): 9.293 and 8.992 and 7.439 | LUM, split luciferase luminescence (Fig. 3c source data) ([5]; [Ligand] 1 uM): 12.392 and 10.463 and 10.193 | LUM, split luciferase luminescence (Fig. 3c source data) ([5]; [Ligand] 10 uM): 13.953 and 10.293 (2×)
